# Data: patent US9993538B2, “Peptide vaccine therapy for treatment of FRα-expressing tumors” (Galena Biopharma, Inc., priority 2015, dated 2018)
# No end group written: not given here.
# What was measured:
# [1] = parameters: species or system human; settings: in vivo
# From the text: Eligible patients were identified with endometrial, ovarian, fallopian tube or peritoneal cancer and were disease-free after standard of care therapies. Patients were surgically or naturally post-menopausal. Exclusion criteria included patients currently receiving immunosuppressive therapy to include chemotherapy, steroids or methotrexate, poor health (ECOG […]), evidence of end-organ dysfunction, pregnancy, breast feeding, history of autoimmune disease, and involvement in other experimental protocols (except with permission of the principal investigator of the other study). […]
# The E39 peptide (FBP 191-199, EIWTHSYKV) was produced commercially by an FDA-compliant production facility for patient use. […] This dose (250 mcg) of GM-CSF has been previously determined to be a safe and effective dose, based on our prior work with NeuVax^6. […]
# The phase I portion of this trial consisted of dose escalation to determine a safe and effective dose of the E39 peptide. […] Prior to the fourth inoculation, each patient was assessed for liver, renal, and hematopoietic dysfunction. […]
# Standard local and systemic toxicities were collected and graded per the National Cancer Institute Common Terminology Criteria for Adverse Events, v4.03 toxicity scale. […] Systemic toxicity and inoculation site local reactions were also determined after 48-72 hours.
# [2] = Booster study: local reactions (LR) 48-72 hours after each booster, safety; assay type: in vivo, human; settings: 500 mcg peptide + 250 mcg GM-CSF booster
# From the text: Booster inoculations of peptide vaccines may improve disease-free survival (DFS) (e.g., U.S. Pat. No. 8,222,214), but repeated boosting can theoretically lead to overstimulation and loss of vaccine-induced T cells. Therefore, to assess the use of the attenuated E39′ peptide as a booster, E39-vaccinated patients described in Example 1 were randomized to receive either E39 or E39′ as a booster to determine the effect on long-term E39-specific immunity. Patients in the VG received six intradermal E39 injections as described in Example 1 as a primary vaccination schedule (PVS). […]
# Local reactions (LR) were recorded 48-72 hours after each booster. Immune response was determined by measurement of E39 specific CTL levels using a Dextramer reagents in accordance with the manufacturer's instructions (Immudex Limited, Copenhagen, Denmark) as previously described (e.g., Tario et al. Cytometry B Clin. Cytom. 2015; 88B:6-20; Baba J. Transl Med. 2010; 8:84), at R0 (baseline pre-vaccination), RC1(1 month after completion of PVS), RC6 (6 months after completion of PVS and before booster), RC7 (1 month after booster) and RC12 (6 months after booster and 12 months after completion of PVS). Demographic, safety, immunological, and DFS data were collected and evaluated.
# [3] = test system: tumor-associated lymphocyte (TAL); settings: cited from earlier work
substance,measurement,setting,value
"EIWTHSYKV [E39, EIWTHSYKV]",patients experiencing grade 3 toxicity,[1],1 patient
"EIWTFSTKV [E39′, EIWTFSTKV]",safety of booster,[2],safe
"E41: FRα-derived immunogenic peptide E41 (FRα 245-253) (LLSLALMLL; UniProt P15328 245-253, looked up, fragment)",effect on TAL proliferation and anti-tumor function,[3],capable of enhancing tumor-associated lymphocyte (TAL) proliferation and anti-tumor function
